We go through 21 molecules from ChEMBL document CHEMBL3045042, “The discovery of SYP-10913 and SYP-11277: novel strobilurin acaricides” (Pest Manag Sci, 2011).

The subject of data set [1] is Tetranychus cinnabarinus. As to the kind of experiment: Acaricidal activity against Tetranychus cinnabarinus (carmine spider mite) in kidney bean leaf assessed as mortality at 10 mg/L measured after 72 hr of spray. In kind it is functional.
Data set [2] has as its system Tetranychus cinnabarinus. As to the kind of experiment: Acaricidal activity against Tetranychus cinnabarinus (carmine spider mite) in kidney bean leaf assessed as mortality at 40 mg/L measured after 72 hr of spray. It is filed as functional.
Data set [3] has as its system Tetranychus cinnabarinus. As to the kind of experiment: Acaricidal activity against Tetranychus cinnabarinus (carmine spider mite) in kidney bean leaf assessed as mortality at 2.5 mg/L measured after 72 hr of spray. It is filed as functional.
The subject of data set [4] is Tetranychus cinnabarinus. The data set can be described thus: Acaricidal activity against Tetranychus cinnabarinus (carmine spider mite) in kidney bean leaf assessed as mortality at 5 mg/L measured after 72 hr of spray. It is filed as functional.
The test system of data set [5] is Tetranychus cinnabarinus. As to the kind of experiment: Acaricidal activity against Tetranychus cinnabarinus (carmine spider mite) in kidney bean leaf assessed as mortality at 1.25 mg/L measured after 72 hr of spray. It is filed as functional.
For data set [6], the species on record is Oryctolagus cuniculus. The data set can be described thus: Toxicity in Oryctolagus cuniculus (rabbit) assessed as eye irritation. In kind it is organism-based. Particulars: in vivo.
A short description of data set [7]: Acute oral toxicity in Mus musculus (mouse). It is filed as organism-based. Particulars: in vivo.
For data set [8], the species on record is Oryctolagus cuniculus. As to the kind of experiment: Toxicity in Oryctolagus cuniculus (rabbit) assessed as skin irritation. In kind it is organism-based. Particulars: in vivo.
A short description of data set [9]: Acute percutaneous toxicity in Mus musculus (mouse). It is filed as organism-based. The settings on record: in vivo, topical or ocular.
Data set [10] deals with Tetranychus cinnabarinus. The data set can be described thus: Acaricidal activity against nymphs of Tetranychus cinnabarinus (carmine spider mite) in kidney bean leaf assessed as mortality measured after 120 hr. In kind it is functional.
For data set [11], the system named is Tetranychus cinnabarinus. The data set can be described thus: Acaricidal activity against eggs of Tetranychus cinnabarinus (carmine spider mite) in kidney bean leaf assessed as unhatched eggs measured after 120 hr. In kind it is functional.
Data set [12] relates to Salmonella typhimurium. As to the kind of experiment: Genotoxicity in Salmonella enterica subsp. enterica serovar Typhimurium by Ames test. In kind it is toxicity, organism-based. On the technique in general: The Ames test detects mutagens through reverse mutation in bacteria.

Values after ≈ are worked out from the molar mass of the structure shown.

The mortality is the share of the test organisms that died. Turning to `CO/C=C(/C(=O)OC)c1ccccc1COc1cc(C(F)(F)F)nc(Nc2ccc(Cl)c(Cl)c2)n1`, the mortality at 10 µg/mL in data set [1] stood at 0%. Besides, the mortality at 40 µg/mL in [2] was determined as 73%.
The matching figures for `CO/C=C(/C(=O)OC)c1ccccc1COc1cc(C(F)(F)F)nc(Nc2ccc(C)cc2C)n1`: 76% and 100%.
For `CO/C=C(/C(=O)OC)c1ccccc1COc1cc(C(F)(F)F)nc(Nc2cc(Cl)ccc2Cl)n1`, the mortality at 10 µg/mL in data set [1] was 20%. Also, the mortality at 40 µg/mL in [2] came out at 100%.
With `CO/C=C(/C(=O)OC)c1ccccc1COc1cc(C(F)(F)F)nc(Nc2ccc(Cl)c(C)c2Cl)n1`, the mortality at 10 µg/mL in data set [1] came out at 100%. In data set [3], the mortality at 2.5 µg/mL turned out to be 92%. For the same molecule, in data set [2], the mortality at 40 µg/mL amounted to 100%. In addition, the mortality at 5 µg/mL in data set [4] amounted to 100%. Further, the mortality at 1.25 µg/mL in data set [5] was found to be 79%.
In the case of `CO/C=C(/C(=O)OC)c1ccccc1COc1cc(C(F)(F)F)nc(Nc2ccc(Cl)c(Cl)c2Cl)n1`, the mortality at 10 µg/mL in data set [1] is 100%. Also, the mortality at 2.5 µg/mL in [3] was 98%. The mortality at 40 µg/mL in data set [2] turned out to be 100%. Besides, in [4], the mortality at 5 µg/mL came to 100%. Also, the mortality at 1.25 µg/mL in [5] came to 75%.
What is called LD50 is the dose at which mortality reaches 50%. As usually defined, the LC50 is the concentration lethal to half of the exposed cells or organisms. In the case of `CO/C=C(/C(=O)OC)c1ccccc1COc1cc(C(F)(F)F)nc(Nc2cccc(Cl)c2Cl)n1`, the mortality at 10 µg/mL in data set [1] came to 100%. Moreover, in [3], the mortality at 2.5 µg/mL came out at 95%. The mortality at 40 µg/mL in data set [2] turned out to be 100%. For the same molecule, the Activity entry in [6] is reported as “Toxic”; in [8], “Non-toxic”; in [12], “Non-toxic”. For the same molecule, in data set [4], the mortality at 5 µg/mL was 99%. Besides, the LD50 in [7] is ≥ 4640 mg/kg; in [9] it was ≥ 2150 mg/kg. For the same molecule, the LC50 was 0.34 µg/mL (≈ 0.644 µM) in data set [10] and 4.75 µg/mL (≈ 8.99 µM) in data set [11]. The mortality at 1.25 µg/mL in data set [5] turned out to be 75%.
For the molecule `CO/C=C(/C(=O)OC)c1ccccc1COc1cc(C(F)(F)F)nc(OC(C)C)n1` [FLUACRYPYRIM], in data set [1], the mortality at 10 µg/mL is 95%. Besides, the mortality at 2.5 µg/mL in data set [3] was determined as 65%. For the same molecule, the mortality at 40 µg/mL in [2] was determined as 100%. The mortality at 5 µg/mL in [4] was 94%. Further, the LC50 in data set [10] was determined as 0.64 µg/mL (≈ 1.5 µM); in data set [11], 5.95 µg/mL (≈ 14 µM). The mortality at 1.25 µg/mL in [5] was 30%.
As for `CO/C=C(/C(=O)OC)c1ccccc1COc1cc(C(F)(F)F)nc(Nc2cccc(Cl)c2C)n1`, the mortality at 10 µg/mL in data set [1] turned out to be 0%. Also, the mortality at 40 µg/mL in data set [2] worked out at 0%.
On to `CO/C=C(/C(=O)OC)c1ccccc1COc1cc(C(F)(F)F)nc(Nc2ccccc2C)n1`, for which the mortality at 10 µg/mL in data set [1] turned out to be 0%. The mortality at 40 µg/mL in [2] was found to be 100%.
With `CO/C=C(/C(=O)OC)c1ccccc1COc1cc(C(F)(F)F)nc(Nc2cccc(C)c2)n1`, in data set [1], the mortality at 10 µg/mL worked out at 20%. The mortality at 40 µg/mL in data set [2] amounted to 90%.
On to `CO/C=C(/C(=O)OC)c1ccccc1COc1cc(C(F)(F)F)nc(Nc2ccc(OC)cc2)n1`, for which, in data set [1], the mortality at 10 µg/mL stood at 0%. The mortality at 40 µg/mL in data set [2] amounted to 0%.
With `CO/C=C(/C(=O)OC)c1ccccc1COc1cc(C(F)(F)F)nc(Nc2cc(Cl)cc(Cl)c2)n1`, the mortality at 10 µg/mL in data set [1] came out at 0%. Further, in data set [2], the mortality at 40 µg/mL was 0%.
Regarding `CO/C=C(/C(=O)OC)c1ccccc1COc1cc(C(F)(F)F)nc(Nc2ccc(Cl)cc2)n1`, the mortality at 10 µg/mL in [1] turned out to be 0%. The mortality at 40 µg/mL in data set [2] turned out to be 0%.
With `CO/C=C(/C(=O)OC)c1ccccc1COc1cc(C(F)(F)F)nc(Nc2cc(Cl)c(Cl)cc2Cl)n1`, the mortality at 10 µg/mL in [1] is 0%. For the same molecule, the mortality at 40 µg/mL in data set [2] was determined as 0%.
For `CO/C=C(/C(=O)OC)c1ccccc1COc1cc(C(F)(F)F)nc(Nc2ccc(Cl)cc2C)n1`, the mortality at 10 µg/mL in data set [1] was found to be 0%. Moreover, the mortality at 40 µg/mL in [2] was 0%.
For `CO/C=C(/C(=O)OC)c1ccccc1COc1cc(C(F)(F)F)nc(Nc2cc(C)ccc2C)n1`, the mortality at 10 µg/mL in data set [1] stood at 0%. For the same molecule, the mortality at 40 µg/mL in [2] came to 0%.
Consider `CO/C=C(/C(=O)OC)c1ccccc1COc1cc(C(F)(F)F)nc(Nc2ccc(C)cc2)n1`, for which the mortality at 10 µg/mL in [1] came out at 0%. For the same molecule, the mortality at 40 µg/mL in data set [2] was 0%.
Consider `CO/C=C(/C(=O)OC)c1ccccc1COc1cc(C(F)(F)F)nc(Nc2ccc(C(F)(F)F)cc2)n1`, for which the mortality at 10 µg/mL in [1] stood at 0%. Also, in data set [2], the mortality at 40 µg/mL worked out at 0%.
As for `CO/C=C(/C(=O)OC)c1ccccc1COc1cc(C(F)(F)F)nc(Nc2c(Cl)cccc2Cl)n1`, the mortality at 10 µg/mL in [1] came out at 0%. Besides, in data set [2], the mortality at 40 µg/mL stood at 0%.
As for `CO/C=C(/C(=O)OC)c1ccccc1COc1cc(C(F)(F)F)nc(Nc2ccc(Cl)cc2Cl)n1` [SYP-11277], the mortality at 10 µg/mL in data set [1] came out at 100%. The mortality at 2.5 µg/mL in data set [3] is 98%. Further, the mortality at 40 µg/mL in [2] was 100%. Further, the mortality at 5 µg/mL in [4] came to 100%. In addition, the LC50 turned out to be 0.37 µg/mL (≈ 0.7 µM) in data set [10] and 3.63 µg/mL (≈ 6.87 µM) in data set [11]. Besides, the mortality at 1.25 µg/mL in data set [5] worked out at 90%.
For `CO/C=C(/C(=O)OC)c1ccccc1COc1cc(C(F)(F)F)nc(Nc2ccc(C)c(C)c2)n1`, in [1], the mortality at 10 µg/mL was 20%. Also, the mortality at 40 µg/mL in [2] worked out at 97%.
